The record followed here is BindingDB's records for doi:10.1128/AAC.00386-06 (University of Connecticut At Storrs, 2006).

For orientation: IC50 means the concentration needed to halve the response being measured. Read a high IC50 as weaker potency in that assay.

For this assay, the target named is T1, Dihydrofolate reductase (Bacillus cereus (strain ATCC 14579 / DSM 31 / CCUG 7414 / JCM 2152 / NBRC 15305 / NCIMB 9373 / NCTC 2599 / NRRL B-3711), UniProt Q81E04).
T1 sequence (Q81E04 whole entry): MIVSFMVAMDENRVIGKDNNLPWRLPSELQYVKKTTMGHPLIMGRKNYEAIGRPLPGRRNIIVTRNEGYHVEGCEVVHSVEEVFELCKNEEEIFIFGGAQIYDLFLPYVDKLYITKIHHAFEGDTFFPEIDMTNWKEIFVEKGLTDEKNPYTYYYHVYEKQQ
The experiment in a line: In Vitro Inhibition Assay. The conditions noted are these: pH 7; 25 °C. As for the experimental part: Enzyme activity assays were performed by monitoring the rate of enzyme-dependent NADPH consumption at an absorbance of 340 nm over a period of several minutes. After an incubation period of 5 min in the presence or absence of the inhibitor, the reaction was initiated with the addition of dihydrofolate. The reactions were performed a minimum of four times to determine the average rate and 50% inhibitory concentration values.
Molecule `COc1ccc(C#CCCCCC(=O)O)cc1Cc1cnc(N)nc1N` returned an IC50 of 69.3 µM.

In turn, `COc1ccc(CCCCCC(=O)O)cc1Cc1cnc(N)nc1N` registered an IC50 of 150 µM.

The molecule `COc1ccc(C#CCCCCC(=O)O)cc1Cc1cnc2nc(N)nc(N)c2c1C` [2,4-diamino-5-deazapteridine, 2] showed an IC50 of 0.27 µM.

`COc1ccc(OCCCCC(=O)O)cc1Cc1cnc2nc(N)nc(N)c2c1C` [2,4-diamino-5-deazapteridine, 5]: the IC50 is 1.67 µM.

`COc1ccc(OCCCCCC(=O)O)cc1Cc1cnc2nc(N)nc(N)c2c1C` [2,4-diamino-5-deazapteridine, 6] registered a half-inhibitory concentration (IC50) of 0.51 µM.

Molecule `CCOC(=O)CCCOc1ccc(OC)c(Cc2cnc3nc(N)nc(N)c3c2C)c1` [2,4-diamino-5-deazapteridine, 7] displayed an IC50 of 0.88 µM.

Take `Nc1nc(N)c2c(ccc3c4ccccc4ccc32)n1` [4,6-diazatetracyclo[8.8.0.0^{2,7}.0^{11,16}]octadeca-1(10),2,4,6,8,11(16),12,14,17-nonaene-3,5-diamine]: the IC50 was above 1000 µM.

`COc1ccc(OCCCC(=O)O)cc1Cc1cnc2nc(N)nc(N)c2c1C` [4-[3-({2,4-diamino-5-methylpyrido[2,3-d]pyrimidin-6-yl}methyl)-4-methoxyphenoxy]butanoic acid] registered an IC50 of 0.6 µM.

On to `COc1cc(CCc2c[nH]c3nc(N)nc(N)c23)cc(OC)c1OC` [5-[2-(3,4,5-trimethoxyphenyl)ethyl]-7H-pyrrolo[2,3-d]pyrimidine-2,4-diamine], for which 252 µM corresponded to half-maximal inhibition (IC50).

`COc1ccc(I)cc1Cc1cnc(N)nc1N` [5-[(5-iodo-2-methoxyphenyl)methyl]pyrimidine-2,4-diamine]: inhibition was half-maximal at 37.3 µM (IC50).

As to `COc1ccc(C#CCCCC(=O)O)cc1Cc1cnc2nc(N)nc(N)c2c1C` [6-[3-({2,4-diamino-5-methylpyrido[2,3-d]pyrimidin-6-yl}methyl)-4-methoxyphenyl]hex-5-ynoic acid], the IC50 was 1.9 µM.

Take `Nc1nc(N)c2nc(CN3c4ccccc4C=Cc4ccccc43)cnc2n1` [6-{2-azatricyclo[9.4.0.0^{3,8}]pentadeca-1(11),3(8),4,6,9,12,14-heptaen-2-ylmethyl}pteridine-2,4-diamine]: the IC50 came out at 16.7 µM.

`COc1cc(NCc2ccc3nc(N)nc(N)c3c2)c(Br)c(OC)c1OC` [6-{[(2-bromo-3,4,5-trimethoxyphenyl)amino]methyl}quinazoline-2,4-diamine] showed an IC50 of 1.1 µM.

In the case of `Cc1nc2nc(N)nc(N)c2nc1CN(C)c1ccc2c(Cl)cc(Cl)cc2c1` [6-{[(5,7-dichloronaphthalen-2-yl)(methyl)amino]methyl}-7-methylpteridine-2,4-diamine], the IC50 was above 1000 µM.

`CN(Cc1cnc2nc(N)nc(N)c2n1)c1ccc2c(Cl)cc(Cl)cc2c1` [6-{[(5,7-dichloronaphthalen-2-yl)(methyl)amino]methyl}pteridine-2,4-diamine] returned an IC50 of 17.6 µM.

Turning to `Nc1nc(N)c2nc(CNc3ccc4c(Cl)cc(Cl)cc4c3)cnc2n1` [6-{[(5,7-dichloronaphthalen-2-yl)amino]methyl}pteridine-2,4-diamine], the IC50 was found to be 7.58 µM.

In turn, `Nc1nc(N)c2nc(CNc3ccc4cc(Cl)c(Cl)cc4c3)cnc2n1` [6-{[(6,7-dichloronaphthalen-2-yl)amino]methyl}pteridine-2,4-diamine] returned an IC50 of 4.82 µM.

As to `CN(Cc1cnc2nc(N)nc(N)c2n1)c1ccc2cc(Cl)ccc2c1` [6-{[(6-chloronaphthalen-2-yl)(methyl)amino]methyl}pteridine-2,4-diamine], the IC50 worked out at 2.26 µM.

The molecule `Nc1nc(N)c2nc(CNc3ccc4cc(Cl)ccc4c3)cnc2n1` [6-{[(6-chloronaphthalen-2-yl)amino]methyl}pteridine-2,4-diamine] came in with an IC50 of 6.32 µM.

The molecule `CCOC(=O)CCCCOc1ccc(OC)c(Cc2cnc3nc(N)nc(N)c3c2C)c1` [ethyl 5-[3-({2,4-diamino-5-methylpyrido[2,3-d]pyrimidin-6-yl}methyl)-4-methoxyphenoxy]pentanoate] yielded a half-inhibitory concentration (IC50) of 0.35 µM.

The molecule `CCOC(=O)CCCCCOc1ccc(OC)c(Cc2cnc3nc(N)nc(N)c3c2C)c1` [ethyl 6-[3-({2,4-diamino-5-methylpyrido[2,3-d]pyrimidin-6-yl}methyl)-4-methoxyphenoxy]hexanoate] came in with a 50% inhibitory concentration (IC50) of 1.85 µM.
